# Literature values in patent US12390432B2, “Methods for treating allan-herndon-dudley syndrome” (PriZm, LLC, priority 2022, dated 2025).
# Settings: literature report, Groeneweg et al. Lancet Diabetes Endocrinol. 2019; cited from earlier work
structure (smiles),measurement,value
"O=C(O)Cc1cc(I)c(Oc2ccc(O)c(I)c2)c(I)c1 [TRIAC, triiodothyroacetic acid]",thyroxine (T4) serum levels,significantly reduce
